Measured values taken from ChEMBL document CHEMBL5154747, “Discovery of new carbonic anhydrase IX inhibitors as anticancer agents by toning the hydrophobic and hydrophilic rims of the active site to encounter the dual-tail approach” (Eur J Med Chem, 2022).

test system: UACC-257; test: Anticancer activity against human UACC-257 cells assessed as cell growth inhibition at 10 uM incubated for 48 hrs by SRB assay relative to control; assay type: functional; settings: read-out: GI

| Compound | inhibition of growth at 10 µM |
| --- | --- |
| Cc1ccc(/C=N/Nc2nc(Nc3ccccc3)nc(Nc3ccc(S(N)(=O)=O)cc3)n2)cc1 | < 10% |
| CN(C)c1ccc(/C=N/Nc2nc(Nc3ccccc3)nc(Nc3ccc(S(N)(=O)=O)cc3)n2)cc1 | < 10% |
| NS(=O)(=O)c1ccc(Nc2nc(N/N=C/c3cccs3)nc(Nc3ccccc3)n2)cc1 | < 10% |

test system: BT-549; test: Anticancer activity against human BT-549 cells assessed as cell growth inhibition at 10 uM incubated for 48 hrs by SRB assay relative to control; assay type: functional; settings: read-out: GI

| Compound | inhibition of growth at 10 µM |
| --- | --- |
| Cc1ccc(/C=N/Nc2nc(Nc3ccccc3)nc(Nc3ccc(S(N)(=O)=O)cc3)n2)cc1 | 23% |
| CN(C)c1ccc(/C=N/Nc2nc(Nc3ccccc3)nc(Nc3ccc(S(N)(=O)=O)cc3)n2)cc1 | < 10% |
| NS(=O)(=O)c1ccc(Nc2nc(N/N=C/c3cccs3)nc(Nc3ccccc3)n2)cc1 | 22% |

test system: TK-10; test: Anticancer activity against human TK-10 cells assessed as cell growth inhibition at 10 uM incubated for 48 hrs by SRB assay relative to control; assay type: functional; settings: read-out: GI

| Compound | inhibition of growth at 10 µM |
| --- | --- |
| Cc1ccc(/C=N/Nc2nc(Nc3ccccc3)nc(Nc3ccc(S(N)(=O)=O)cc3)n2)cc1 | < 10% |
| CN(C)c1ccc(/C=N/Nc2nc(Nc3ccccc3)nc(Nc3ccc(S(N)(=O)=O)cc3)n2)cc1 | < 10% |
| NS(=O)(=O)c1ccc(Nc2nc(N/N=C/c3cccs3)nc(Nc3ccccc3)n2)cc1 | < 10% |

test system: NCI-H322M; test: Anticancer activity against human NCI-H322M cells assessed as cell growth inhibition at 10 uM incubated for 48 hrs by SRB assay relative to control; assay type: functional; settings: read-out: GI

| Compound | inhibition of growth at 10 µM |
| --- | --- |
| Cc1ccc(/C=N/Nc2nc(Nc3ccccc3)nc(Nc3ccc(S(N)(=O)=O)cc3)n2)cc1 | > 10% |
| CN(C)c1ccc(/C=N/Nc2nc(Nc3ccccc3)nc(Nc3ccc(S(N)(=O)=O)cc3)n2)cc1 | 15% |
| NS(=O)(=O)c1ccc(Nc2nc(N/N=C/c3cccs3)nc(Nc3ccccc3)n2)cc1 | 23% |

test system: PC-3; test: Anticancer activity against human PC-3 cells assessed as cell growth inhibition at 10 uM incubated for 48 hrs by SRB assay relative to control; assay type: functional; settings: read-out: GI

| Compound | inhibition of growth at 10 µM |
| --- | --- |
| Cc1ccc(/C=N/Nc2nc(Nc3ccccc3)nc(Nc3ccc(S(N)(=O)=O)cc3)n2)cc1 | 33% |
| CN(C)c1ccc(/C=N/Nc2nc(Nc3ccccc3)nc(Nc3ccc(S(N)(=O)=O)cc3)n2)cc1 | 38% |
| NS(=O)(=O)c1ccc(Nc2nc(N/N=C/c3cccs3)nc(Nc3ccccc3)n2)cc1 | 23% |

test system: MCF7; test: Anticancer activity against human MCF7 cells assessed as cell growth inhibition at 10 uM incubated for 48 hrs by SRB assay relative to control; assay type: functional; settings: read-out: GI

| Compound | inhibition of growth at 10 µM |
| --- | --- |
| Cc1ccc(/C=N/Nc2nc(Nc3ccccc3)nc(Nc3ccc(S(N)(=O)=O)cc3)n2)cc1 | 73% |
| CN(C)c1ccc(/C=N/Nc2nc(Nc3ccccc3)nc(Nc3ccc(S(N)(=O)=O)cc3)n2)cc1 | 40% |
| NS(=O)(=O)c1ccc(Nc2nc(N/N=C/c3cccs3)nc(Nc3ccccc3)n2)cc1 | 47% |

test system: SF-295; test: Anticancer activity against human SF-295 cells assessed as cell growth inhibition at 10 uM incubated for 48 hrs by SRB assay relative to control; assay type: functional; settings: read-out: GI

| Compound | inhibition of growth at 10 µM |
| --- | --- |
| Cc1ccc(/C=N/Nc2nc(Nc3ccccc3)nc(Nc3ccc(S(N)(=O)=O)cc3)n2)cc1 | 42% |
| CN(C)c1ccc(/C=N/Nc2nc(Nc3ccccc3)nc(Nc3ccc(S(N)(=O)=O)cc3)n2)cc1 | 53% |
| NS(=O)(=O)c1ccc(Nc2nc(N/N=C/c3cccs3)nc(Nc3ccccc3)n2)cc1 | 23% |

test system: NCI/ADR-RES; test: Anticancer activity against human NCI/ADR-RES cells assessed as cell growth inhibition at 10 uM incubated for 48 hrs by SRB assay relative to control; assay type: functional; settings: read-out: GI

| Compound | inhibition of growth at 10 µM |
| --- | --- |
| Cc1ccc(/C=N/Nc2nc(Nc3ccccc3)nc(Nc3ccc(S(N)(=O)=O)cc3)n2)cc1 | < 10% |
| CN(C)c1ccc(/C=N/Nc2nc(Nc3ccccc3)nc(Nc3ccc(S(N)(=O)=O)cc3)n2)cc1 | < 10% |
| NS(=O)(=O)c1ccc(Nc2nc(N/N=C/c3cccs3)nc(Nc3ccccc3)n2)cc1 | < 10% |

test system: MDA-MB-435; test: Anticancer activity against human MDA-MB-435 cells assessed as cell growth inhibition at 10 uM incubated for 48 hrs by SRB assay relative to control; assay type: functional; settings: read-out: GI

| Compound | inhibition of growth at 10 µM |
| --- | --- |
| Cc1ccc(/C=N/Nc2nc(Nc3ccccc3)nc(Nc3ccc(S(N)(=O)=O)cc3)n2)cc1 | 30% |
| CN(C)c1ccc(/C=N/Nc2nc(Nc3ccccc3)nc(Nc3ccc(S(N)(=O)=O)cc3)n2)cc1 | 11% |
| NS(=O)(=O)c1ccc(Nc2nc(N/N=C/c3cccs3)nc(Nc3ccccc3)n2)cc1 | 25% |

test system: DU-145; test: Anticancer activity against human DU-145 cells assessed as cell growth inhibition at 10 uM incubated for 48 hrs by SRB assay relative to control; assay type: functional; settings: read-out: GI

| Compound | inhibition of growth at 10 µM |
| --- | --- |
| Cc1ccc(/C=N/Nc2nc(Nc3ccccc3)nc(Nc3ccc(S(N)(=O)=O)cc3)n2)cc1 | 34% |
| CN(C)c1ccc(/C=N/Nc2nc(Nc3ccccc3)nc(Nc3ccc(S(N)(=O)=O)cc3)n2)cc1 | 26% |
| NS(=O)(=O)c1ccc(Nc2nc(N/N=C/c3cccs3)nc(Nc3ccccc3)n2)cc1 | 40% |

test system: A498; test: Anticancer activity against human A498 cells assessed as cell growth inhibition at 10 uM incubated for 48 hrs by SRB assay relative to control; assay type: functional; settings: read-out: GI

| Compound | inhibition of growth at 10 µM |
| --- | --- |
| Cc1ccc(/C=N/Nc2nc(Nc3ccccc3)nc(Nc3ccc(S(N)(=O)=O)cc3)n2)cc1 | 45% |
| CN(C)c1ccc(/C=N/Nc2nc(Nc3ccccc3)nc(Nc3ccc(S(N)(=O)=O)cc3)n2)cc1 | 14% |
| NS(=O)(=O)c1ccc(Nc2nc(N/N=C/c3cccs3)nc(Nc3ccccc3)n2)cc1 | 43% |

test system: OVCAR-4; test: Anticancer activity against human OVCAR-4 cells assessed as cell growth inhibition at 10 uM incubated for 48 hrs by SRB assay relative to control; assay type: functional; settings: read-out: GI

| Compound | inhibition of growth at 10 µM |
| --- | --- |
| Cc1ccc(/C=N/Nc2nc(Nc3ccccc3)nc(Nc3ccc(S(N)(=O)=O)cc3)n2)cc1 | 30% |
| CN(C)c1ccc(/C=N/Nc2nc(Nc3ccccc3)nc(Nc3ccc(S(N)(=O)=O)cc3)n2)cc1 | < 10% |
| NS(=O)(=O)c1ccc(Nc2nc(N/N=C/c3cccs3)nc(Nc3ccccc3)n2)cc1 | 29% |

test system: SK-MEL-2; test: Anticancer activity against human SK-MEL-2 cells assessed as cell growth inhibition at 10 uM incubated for 48 hrs by SRB assay relative to control; assay type: functional; settings: read-out: GI

| Compound | inhibition of growth at 10 µM |
| --- | --- |
| Cc1ccc(/C=N/Nc2nc(Nc3ccccc3)nc(Nc3ccc(S(N)(=O)=O)cc3)n2)cc1 | 22% |
| CN(C)c1ccc(/C=N/Nc2nc(Nc3ccccc3)nc(Nc3ccc(S(N)(=O)=O)cc3)n2)cc1 | 18% |
| NS(=O)(=O)c1ccc(Nc2nc(N/N=C/c3cccs3)nc(Nc3ccccc3)n2)cc1 | 24% |

test system: HOP-62; test: Anticancer activity against human HOP-62 cells assessed as cell growth inhibition at 10 uM incubated for 48 hrs by SRB assay relative to control; assay type: functional; settings: read-out: GI

| Compound | inhibition of growth at 10 µM |
| --- | --- |
| Cc1ccc(/C=N/Nc2nc(Nc3ccccc3)nc(Nc3ccc(S(N)(=O)=O)cc3)n2)cc1 | 13% |
| CN(C)c1ccc(/C=N/Nc2nc(Nc3ccccc3)nc(Nc3ccc(S(N)(=O)=O)cc3)n2)cc1 | 12% |
| NS(=O)(=O)c1ccc(Nc2nc(N/N=C/c3cccs3)nc(Nc3ccccc3)n2)cc1 | 15% |

test system: NCI-H226; test: Anticancer activity against human NCI-H226 cells assessed as cell growth inhibition at 10 uM incubated for 48 hrs by SRB assay relative to control; assay type: functional; settings: read-out: GI

| Compound | inhibition of growth at 10 µM |
| --- | --- |
| Cc1ccc(/C=N/Nc2nc(Nc3ccccc3)nc(Nc3ccc(S(N)(=O)=O)cc3)n2)cc1 | 20% |
| CN(C)c1ccc(/C=N/Nc2nc(Nc3ccccc3)nc(Nc3ccc(S(N)(=O)=O)cc3)n2)cc1 | 21% |
| NS(=O)(=O)c1ccc(Nc2nc(N/N=C/c3cccs3)nc(Nc3ccccc3)n2)cc1 | 29% |

test system: KM12; test: Anticancer activity against human KM12 cells assessed as cell growth inhibition at 10 uM incubated for 48 hrs by SRB assay relative to control; assay type: functional; settings: read-out: GI

| Compound | inhibition of growth at 10 µM |
| --- | --- |
| Cc1ccc(/C=N/Nc2nc(Nc3ccccc3)nc(Nc3ccc(S(N)(=O)=O)cc3)n2)cc1 | 34% |
| CN(C)c1ccc(/C=N/Nc2nc(Nc3ccccc3)nc(Nc3ccc(S(N)(=O)=O)cc3)n2)cc1 | 33% |
| NS(=O)(=O)c1ccc(Nc2nc(N/N=C/c3cccs3)nc(Nc3ccccc3)n2)cc1 | 44% |

test system: MDA-MB-231; test: Anticancer activity against human MDA-MB-231 cells assessed as cell growth inhibition at 10 uM incubated for 48 hrs by SRB assay relative to control; assay type: functional; settings: read-out: GI

| Compound | inhibition of growth at 10 µM |
| --- | --- |
| Cc1ccc(/C=N/Nc2nc(Nc3ccccc3)nc(Nc3ccc(S(N)(=O)=O)cc3)n2)cc1 | 26% |
| CN(C)c1ccc(/C=N/Nc2nc(Nc3ccccc3)nc(Nc3ccc(S(N)(=O)=O)cc3)n2)cc1 | 13% |
| NS(=O)(=O)c1ccc(Nc2nc(N/N=C/c3cccs3)nc(Nc3ccccc3)n2)cc1 | 53% |

test system: MOLT-4; test: Anticancer activity against human MOLT-4 cells assessed as cell growth inhibition at 10 uM incubated for 48 hrs by SRB assay relative to control; assay type: functional; settings: read-out: GI

| Compound | inhibition of growth at 10 µM |
| --- | --- |
| Cc1ccc(/C=N/Nc2nc(Nc3ccccc3)nc(Nc3ccc(S(N)(=O)=O)cc3)n2)cc1 | 59% |
| CN(C)c1ccc(/C=N/Nc2nc(Nc3ccccc3)nc(Nc3ccc(S(N)(=O)=O)cc3)n2)cc1 | 44% |
| NS(=O)(=O)c1ccc(Nc2nc(N/N=C/c3cccs3)nc(Nc3ccccc3)n2)cc1 | 42% |

test system: A549; test: Anticancer activity against human A549 cells assessed as cell growth inhibition at 10 uM incubated for 48 hrs by SRB assay relative to control; assay type: functional; settings: read-out: GI

| Compound | inhibition of growth at 10 µM |
| --- | --- |
| Cc1ccc(/C=N/Nc2nc(Nc3ccccc3)nc(Nc3ccc(S(N)(=O)=O)cc3)n2)cc1 | 16% |
| CN(C)c1ccc(/C=N/Nc2nc(Nc3ccccc3)nc(Nc3ccc(S(N)(=O)=O)cc3)n2)cc1 | 26% |
| NS(=O)(=O)c1ccc(Nc2nc(N/N=C/c3cccs3)nc(Nc3ccccc3)n2)cc1 | 11% |

test system: SF-268; test: Anticancer activity against human SF-268 cells assessed as cell growth inhibition at 10 uM incubated for 48 hrs by SRB assay relative to control; assay type: functional; settings: read-out: GI

| Compound | inhibition of growth at 10 µM |
| --- | --- |
| Cc1ccc(/C=N/Nc2nc(Nc3ccccc3)nc(Nc3ccc(S(N)(=O)=O)cc3)n2)cc1 | 12% |
| CN(C)c1ccc(/C=N/Nc2nc(Nc3ccccc3)nc(Nc3ccc(S(N)(=O)=O)cc3)n2)cc1 | 10% |
| NS(=O)(=O)c1ccc(Nc2nc(N/N=C/c3cccs3)nc(Nc3ccccc3)n2)cc1 | 16% |
